BindingDB's records for patent US10759792 (The Johns Hopkins University, 2020)

Target: Calcium/calmodulin-dependent protein kinase type II subunit delta (Homo sapiens, UniProt Q13557)
Experiment: Inhibition Assay
Procedure: Compounds were added in 5 uL volume to wells in UV transparent 96-well plates ( area well size). The final compound concentrations tested ranged from 0.5 nM to 10 uM). Assays were performed in duplicate. CaMKIIδ is added to at a final concentration of 16 nM to a mixture containing 100 mM Tris (pH 7.5), 150 mM KCl, 0.27 mM EGTA, 1.3 mM PEP, 0.2 mg/ml AC3, 6.9% (v/v) PK/LDH mixture (Sigma P0294), 0.38 mM NADH and kept on ice. 72 uL of the enzyme mixture was added to the wells containing compounds and the plate was shaken briefly and kept on ice. The assay was initiated by adding 23 uL of a mixture containing 100 mM Tris (pH 7.5), 150 mM KCl, 1.7 mM CaCl2, 48 mM MgCl2, 0.35 mM ATP and 6.7 ug/mL calmodulin. The rate of ADP released was measured as the rate of absorbance decrease at […] at 25° C.

Calcium/calmodulin-dependent protein kinase type II subunit delta, sequence (Q13557 whole entry): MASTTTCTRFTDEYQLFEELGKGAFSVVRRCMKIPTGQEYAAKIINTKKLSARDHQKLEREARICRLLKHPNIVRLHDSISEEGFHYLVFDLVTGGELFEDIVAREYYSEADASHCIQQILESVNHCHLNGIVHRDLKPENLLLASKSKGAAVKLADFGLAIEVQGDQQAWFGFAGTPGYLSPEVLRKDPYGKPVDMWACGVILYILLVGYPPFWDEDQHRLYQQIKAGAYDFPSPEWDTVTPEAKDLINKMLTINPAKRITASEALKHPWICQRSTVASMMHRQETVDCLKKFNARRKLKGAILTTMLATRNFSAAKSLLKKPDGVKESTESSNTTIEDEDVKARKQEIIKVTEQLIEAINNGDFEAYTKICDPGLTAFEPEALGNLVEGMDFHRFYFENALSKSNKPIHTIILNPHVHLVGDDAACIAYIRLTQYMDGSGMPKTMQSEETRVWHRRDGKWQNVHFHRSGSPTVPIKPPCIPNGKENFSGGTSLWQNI

| SMILES | IC50 |
| --- | --- |
| Cc1ccc2c(c1)[nH]c1nccc(-c3cccc(NCCN)c3)c12 [US10759792, Compound I-11] | < 50 nM |
| NCCCNc1cccc(-c2ccnc3[nH]c4ccccc4c23)c1 [US10759792, Compound I-8] | < 50 nM |
